In brackets after ≈: the same amount, converted by molar mass. *1 amine or outer side, *2 acyl side, *3 side chain or, on linkers, in order; H or OH if unused. Where a SMILES comes first, the peptide text is derived from it. [ ]: non-standard residue; d: D form. The star is where a group is joined. X12 = C[C@H](CO[C@H](CC12CC3CC(CC(C3)C1)C2)[C@@H](C)C(=O)[*:2])N[*:1]; X16 = CCCCCC[C@@H](O[C@@H](C)CN[*:1])[C@@H](C)C(=O)[*:2]; X2 = CCCCCC[C@@H](OC[C@@H](C)N[*:1])[C@@H](C)C(=O)[*:2]; aThr = C[C@H](O)[C@H](N)C(=O)O; NMeL = CN[C@@H](CC(C)C)C(=O)O; Chg = N[C@H](C(=O)O)C1CCCCC1; Dap = NC[C@H](N)C(=O)O; Propyl(3-NH2) = NCCC*; X11 = OC[C@H](O)C*; X10 = NCCCC*
Tested on: Escherichia coli (E. coli) strain CFT073 ATCC 700928
Assay type: cell-based
Settings: ATCC 700928, 22 h
In short: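 MICs were read after 22 h at 35 °C, with bacteria added to a final OD600 of 0.0005. Compounds were serially diluted 2-fold over ten concentrations from a top of 64, 4, 0.5 or 0.13 μg/mL (protocols 1–4). Medium was cation-adjusted Mueller Hinton II broth plus 0.002% Tween-80, following CLSI M07-A8.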

Compound | MIC [µM]
CCCCCC[C@H]1OC(=O)CNC(=O)[C@H](CO[C@H]2C[C@H](N)C2)NC(=O)[C@H](CN)NC(=O)[C@H](C2CCCCC2)NC(=O)[C@H](CC(C)C)N(C)C(=O)[C@@H]1C [Example 58, (6S,9S,12S,15S,18R,19R)-6-(((1r,3S)-3-Aminocyclobutoxy)methyl)-9-(aminomethyl)-12-cyclohexyl-19-hexyl-15-isobutyl-16,18-dimethyl-1-oxa-4,7,10,13,16-pentaazacyclononadecane-2,5,8,11,14,17-hexaone] | 6.3 (≈ 4.64 µg/mL)
CCCCCCC1OC(=O)CNC(=O)[C@H]([C@H](C)O)NC(=O)[C@H](CN)NC(=O)[C@H]([C@H](C)CC)NC(=O)[C@H](CC(C)C)N(C)C(=O)C1(F)F (stereo partly drawn) [Example 61, (6S,9S,12S,15S)-9-(Aminomethyl)-12-((R)-sec-butyl)-18,18-difluoro-19-hexyl-6-((S)-1-hydroxyethyl)-15-isobutyl-16-methyl-1-oxa-4,7,10,13,16-pentaazacyclononadecane-2,5,8,11,14,17-hexaone] | 6.3 (≈ 4.26 µg/mL)
CCCCCC[C@H]1OC[C@@H](C)NC(=O)[C@H](COC[C@@H](O)CO)NC(=O)[C@H](CN)NC(=O)[C@H](C2CCCCC2)NC(=O)[C@H](CC(C)C)N(C)C(=O)[C@@H]1C [Example 67, (3R,6S,9S,12S,15S,18R,19R)-9-(Aminomethyl)-12-cyclohexyl-6-(((S)-2,3-dihydroxypropoxy)methyl)-19-hexyl-15-isobutyl-3,16,18-trimethyl-1-oxa-4,7,10,13,16-pentaazacyclononadecane-5,8,11,14,17-pentaone] (cyclo([Chg][Dap]S(X11)[X2][NMeL])) | 8.8 (≈ 6.52 µg/mL)
CCCCCC[C@H]1OC[C@@H](C)NC(=O)[C@H]([C@H](C)OCCCN)NC(=O)[C@H](CN)NC(=O)[C@H](C2CCCCC2)NC(=O)[C@H](CC(C)C)N(C)C(=O)[C@@H]1C [Example 70, (3R,6S,9S,12S,15S,18R,19R)-9-(Aminomethyl)-6-((S)-1-(3-aminopropoxy)ethyl)-12-cyclohexyl-19-hexyl-15-isobutyl-3,16,18-trimethyl-1-oxa-4,7,10,13,16-pentaazacyclononadecane-5,8,11,14,17-pentaone] (cyclo([Chg][Dap][aThr](Propyl(3-NH2))[X2][NMeL])) | 15 (≈ 11.1 µg/mL)
CCCCCC[C@H]1OC[C@@H](C)NC(=O)[C@H](COCCCCN)NC(=O)[C@H](CN)NC(=O)[C@H](C2CCCCC2)NC(=O)[C@H](CC(C)C)N(C)C(=O)[C@@H]1C [Example 73, (3R,6S,9S,12S,15S,18R,19R)-6-((4-Aminobutoxy)methyl)-9-(aminomethyl)-12-cyclohexyl-19-hexyl-15-isobutyl-3,16,18-trimethyl-1-oxa-4,7,10,13,16-pentaazacyclononadecane-5,8,11,14,17-pentaone] (cyclo([Chg][Dap]S(X10)[X2][NMeL])) | 6.3 (≈ 4.65 µg/mL)
CC(C)C[C@H]1C(=O)N[C@@H](C2CCCCC2)C(=O)N[C@@H](CN)C(=O)N[C@@H]([C@H](C)O)C(=O)N[C@H](C)CO[C@H](CC23CC4CC(CC(C4)C2)C3)[C@@H](C)C(=O)N1C [Example 74, (3R,6S,9S,12S,15S,18R,19R)-19-(((1r,3R,5S)-Adamantan-1-yl)methyl)-9-(aminomethyl)-12-cyclohexyl-6-((S)-1-hydroxyethyl)-15-isobutyl-3,16,18-trimethyl-1-oxa-4,7,10,13,16-pentaazacyclononadecane-5,8,11,14,17-pentaone] (cyclo([Chg][Dap][aThr][X12][NMeL])) | 1.6 (≈ 1.19 µg/mL)
CCCCCC[C@H]1OC[C@@H](C)NC(=O)[C@H](COc2ccc(CN)cc2)NC(=O)[C@H](CN)NC(=O)[C@H](C2CCCCC2)NC(=O)[C@H](CC(C)C)N(C)C(=O)[C@@H]1C [Example 76, (3R,6S,9S,12S,15S,18R,19R)-9-(Aminomethyl)-6-((4-(aminomethyl)phenoxy)methyl)-12-cyclohexyl-19-hexyl-15-isobutyl-3,16,18-trimethyl-1-oxa-4,7,10,13,16-pentaazacyclononadecane-5,8,11,14,17-pentaone] | 6.3 (≈ 4.86 µg/mL)

Further lines, results first:

MIC [µM] | Compound
1.1 (≈ 0.764 µg/mL) | CCCCCC[C@H]1OC(=O)CNC(=O)[C@H]([C@H](C)O)NC(=O)[C@H](CN)NC(=O)[C@H](C2CCCCCC2)NC(=O)[C@H](CC(C)C)N(C)C(=O)[C@@H]1C [Example 59, (6S,9S,12S,15S,18R,19R)-9-(Aminomethyl)-12-cycloheptyl-19-hexyl-6-((S)-1-hydroxyethyl)-15-isobutyl-16,18-dimethyl-1-oxa-4,7,10,13,16-pentaazacyclononadecane-2,5,8,11,14,17-hexaone]
0.73 (≈ 0.525 µg/mL) | CC(C)C[C@H]1C(=O)N[C@@H](C2CCCCC2)C(=O)N[C@@H](CN)C(=O)N[C@@H]([C@H](C)O)C(=O)NCC(=O)O[C@H](CCC2CC3CCC2C3)[C@@H](C)C(=O)N1C (stereo partly drawn) [Example 60, (6S,9S,12S,15S,18R,19R)-9-(Aminomethyl)-19-(2-(bicyclo[2.2.1]heptan-2-yl)ethyl)-12-cyclohexyl-6-((S)-1-hydroxyethyl)-15-isobutyl-16,18-dimethyl-1-oxa-4,7,10,13,16-pentaazacyclononadecane-2,5,8,11,14,17-hexaone]
1.6 (≈ 1.13 µg/mL) | CC(C)C[C@H]1C(=O)N[C@@H](C2CCCCC2)C(=O)N[C@@H](CN)C(=O)N[C@@H]([C@H](C)O)C(=O)NCC(=O)O[C@H](CC2CC3CCC2C3)[C@@H](C)C(=O)N1C (stereo partly drawn) [Example 62, (6S,9S,12S,15S,18R,19R)-9-(Aminomethyl)-19-(((exo)-bicyclo[2.2.1]heptan-2-yl)methyl)-12-cyclohexyl-6-((S)-1-hydroxyethyl)-15-isobutyl-16,18-dimethyl-1-oxa-4,7,10,13,16-pentaazacyclononadecane-2,5,8,11,14,17-hexaone]
4.4 (≈ 3 µg/mL) | CC(C)C[C@H]1C(=O)N[C@@H](C2CCCCC2)C(=O)N[C@@H](CN)C(=O)N[C@@H]([C@H](C)O)C(=O)NCC(=O)O[C@H](CCC(C)(C)C)[C@@H](C)C(=O)N1C [Example 63, (6S,9S,12S,15S,18R,19R)-9-(aminomethyl)-12-cyclohexyl-19-(3,3-dimethylbutyl)-6-((S)-1-hydroxyethyl)-15-isobutyl-16,18-dimethyl-1-oxa-4,7,10,13,16-pentaazacyclononadecane-2,5,8,11,14,17-hexaone]
2.2 (≈ 1.66 µg/mL) | COC(C)(C)CCCCCC[C@H]1OC(=O)CNC(=O)[C@H]([C@H](C)O)NC(=O)[C@H](CN)NC(=O)[C@H](C2CCCCC2)NC(=O)[C@H](CC(C)C)N(C)C(=O)[C@@H]1C [Example 64, (6S,9S,12S,15S,18R,19R)-9-(Aminomethyl)-12-cyclohexyl-6-((S)-1-hydroxyethyl)-15-isobutyl-19-(7-methoxy-7-methyloctyl)-16,18-dimethyl-1-oxa-4,7,10,13,16-pentaazacyclononadecane-2,5,8,11,14,17-hexaone]
0.78 (≈ 0.564 µg/mL) | CC(C)CCCCCC[C@H]1OC(=O)CNC(=O)[C@H]([C@H](C)O)NC(=O)[C@H](CN)NC(=O)[C@H](C2CCCCC2)NC(=O)[C@H](CC(C)C)N(C)C(=O)[C@@H]1C [Example 65, (6S,9S,12S,15S,18R,19R)-9-(Aminomethyl)-12-cyclohexyl-6-((S)-1-hydroxyethyl)-15-isobutyl-16,18-dimethyl-19-(7-methyloctyl)-1-oxa-4,7,10,13,16-pentaazacyclononadecane-2,5,8,11,14,17-hexaone]
1.3 (≈ 0.903 µg/mL) | CCCC[C@H]1OC(=O)CNC(=O)[C@H]([C@H](C)O)NC(=O)[C@H](CN)NC(=O)[C@H](C2CCCCC2)NC(=O)[C@H](CC(C)C)N(C)C(=O)[C@@H]1CCCC [Example 66, (6S,9S,12S,15S,18R,19R)-9-(Aminomethyl)-18,19-dibutyl-12-cyclohexyl-6-((S)-1-hydroxyethyl)-15-isobutyl-16-methyl-1-oxa-4,7,10,13,16-pentaazacyclononadecane-2,5,8,11,14,17-hexaone]
3.1 (≈ 2.32 µg/mL) | CCCCCC[C@H]1OC(=O)CNC(=O)[C@H]([C@H](C)O)NC(=O)[C@H](CN)NC(=O)[C@H](C2CCCCC2)NC(=O)[C@H](CC(C)C)N(C)C(=O)[C@@H]1CC(F)(F)F [Example 68, (6S,9S,12S,15S,18R,19R)-9-(Aminomethyl)-12-cyclohexyl-19-hexyl-6-((S)-1-hydroxyethyl)-15-isobutyl-16-methyl-18-(2,2,2-trifluoroethyl)-1-oxa-4,7,10,13,16-pentaazacyclononadecane-2,5,8,11,14,17-hexaone]
12 (≈ 8.17 µg/mL) | CCCCCC[C@H]1O[C@@H](C)CNC(=O)[C@H]([C@H](C)O)NC(=O)[C@H](CN)NC(=O)[C@H](C2CCCCC2)NC(=O)[C@H](CC(C)C)N(C)C(=O)[C@@H]1C [Example 71, (2S,6S,9S,12S,15S,18R,19R)-9-(Aminomethyl)-12-cyclohexyl-19-hexyl-6-((S)-1-hydroxyethyl)-15-isobutyl-2,16,18-trimethyl-1-oxa-4,7,10,13,16-pentaazacyclononadecane-5,8,11,14,17-pentaone] (cyclo([Chg][Dap][aThr][X16][NMeL]))
12 (≈ 8.99 µg/mL) | CCCCCC[C@H]1OC(=O)CNC(=O)[C@H](CNC(=O)C2CNC2)NC(=O)[C@H](CN)NC(=O)[C@H](C2CCCCC2)NC(=O)[C@H](CC(C)C)N(C)C(=O)[C@@H]1C [Example 72, N-(((6S,9S,12S,15S,18R,19R)-9-(Aminomethyl)-12-cyclohexyl-19-hexyl-15-isobutyl-16,18-dimethyl-2,5,8,11,14,17-hexaoxo-1-oxa-4,7,10,13,16-pentaazacyclononadecan-6-yl)methyl)azetidine-3-carboxamide]
3.1 (≈ 2.33 µg/mL) | CC(C)C[C@H]1C(=O)N[C@@H](C2CCCCC2)C(=O)N[C@@H](CN)C(=O)N[C@@H](COCCCN)C(=O)NCC(=O)O[C@H](CCCCC(C)(C)C)[C@@H](C)C(=O)N1C [Example 75, (6S,9S,12S,15S,18R,19R)-9-(Aminomethyl)-6-((3-aminopropoxy)methyl)-12-cyclohexyl-19-(5,5-dimethylhexyl)-15-isobutyl-16,18-dimethyl-1-oxa-4,7,10,13,16-pentaazacyclononadecane-2,5,8,11,14,17-hexaone]

— patent US11279735B2, “Cyclic peptide antibiotics” (priority 2017, dated 2022)
